Data: patent US20240217982A1, “KRAS INHIBITORS” (Bristol-Myers Squibb Company, priority 2021, published 2024)

Experiments:
KRAS G12D [1] = molecular target: T1, KRAS G12D (Homo sapiens (Human), UniProt P01116, G12D); assay: KRAS G12D Nucleotide Exchange Assay (HTRF); type: biochemical; details: recombinant GDP-loaded KRAS G12D (20 nM), BIODIPY-labeled GDP (400 nM), recombinant SOS (10 nM), HTRF signal
Description: Recombinant GDP-loaded KRAS G12D (20 nM) was treated with compound at room temperature for 20 minutes in assay buffer (10 mM Hepes pH 7.4, 150 mM NaCl, 5 mM MgCl2, 0.0025% Igepal-CA630, 0.05% BSA, 1 mM DTT, 0.5 nM SA-Tb). BIODIPY-labeled GDP (400 nM) and recombinant SOS (10 nM) were added, and the reaction was incubated for 30 minutes.

KRAS G12D [2] = molecular target: T1, KRAS G12D; assay: KRAS G12D RAF Disruption Assay (HTRF); type: biochemical; details: recombinant GMPPNP-loaded KRAS G12D (5 nM), GST-RAF1 RBD (9 nM), HTRF signal
Description: Recombinant GMPPNP-loaded KRAS G12D (5 nM) was treated with compound at room temperature for 20 minutes in assay buffer (50 mM Tris pH 7.5, 100 mM NaCl, 1 mM MgCl2, 1 mM DTT, 100 ug/mL BSA).

T1 sequence (P01116-2 other isoform, or with tags, fused parts or gaps G12D): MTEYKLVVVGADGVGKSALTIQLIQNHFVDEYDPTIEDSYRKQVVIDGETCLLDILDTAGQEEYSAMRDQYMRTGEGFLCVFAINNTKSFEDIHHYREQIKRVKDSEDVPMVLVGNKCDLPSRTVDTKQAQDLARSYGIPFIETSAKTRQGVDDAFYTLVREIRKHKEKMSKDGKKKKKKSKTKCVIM

SMILES	KRASG12D Nucleotide Exchange Assay (IC50, µM) (KRAS G12D [1])	KRASG12D RAF Disruption Assay (IC50, µM) (KRAS G12D [2])
CN1CCC[C@H]1COc1nc(N2CC[C@H]3CC[C@@H](C2)N3)c2cc(Cl)c(-c3cc(O)cc4ccccc34)c(F)c2n1 [Example 6, 4-{6-chloro-4-[(1S,6R)-3,9-diazabicyclo[4.2.1]nonan-3-yl]-8-fluoro-2-{[(2S)-1-methylpyrrolidin-2-yl]methoxy}quinazolin-7-yl}naphthalen-2-ol]	0.01 µM	3.68 µM
Oc1cc(-c2c(Cl)cc3c(N4CC[C@H]5CC[C@@H](C4)N5)nc(OC[C@]45CCCN4C[C@H](F)C5)nc3c2F)c2ccccc2c1 [Example 7, 4-(2-{[(2R,7aR)-2-fluoro-hexahydro-1H-pyrrolizin-7a-yl]methoxy}-6-chloro-4-[(1S,6R)-3,9-diazabicyclo[4.2.1]nonan-3-yl]-8-fluoroquinazolin-7-yl)naphthalen-2-ol]	<0.002 µM	0.48 µM
CN1CCC[C@@]2(COc3nc(N4CC[C@H]5CC[C@@H](C4)N5)c4ccc(-c5cc(O)cc6ccccc56)c(F)c4n3)CCC[C@@H]12 [Example 9-1, 4-(2-{[(4aS,7aR)-1-methyl-octahydro-1H-cyclopenta[b]pyridin-4a-yl]methoxy}-4-[(1S,6R)-3,9-diazabicyclo[4.2.1]nonan-3-yl]-8-fluoroquinazolin-7-yl)naphthalen-2-ol]	0.04 µM	5.1 µM
CN1CCC[C@@]2(COc3nc(N4CC[C@H]5CC[C@@H](C4)N5)c4ccc(-c5cc(O)cc6cccc(F)c56)c(F)c4n3)CCC[C@@H]12 [Example 9-2, 4-(2-{[(4aS,7aR)-1-methyl-octahydro-1H-cyclopenta[b]pyridin-4a-yl]methoxy}-4-[(1S,6R)-3,9-diazabicyclo[4.2.1]nonan-3-yl]-8-fluoroquinazolin-7-yl)-5-fluoronaphthalen-2-ol]	0.03 µM	2.0 µM
CCc1cccc2cc(O)cc(-c3ccc4c(N5CC[C@H]6CC[C@@H](C5)N6)nc(OC[C@]56CCC[C@H]5N(C)CCC6)nc4c3F)c12 [Example 9-3, 4-(2-{[(4aS,7aR)-1-methyl-octahydro-1H-cyclopenta[b]pyridin-4a-yl]methoxy}-4-[(1S,6R)-3,9-diazabicyclo[4.2.1]nonan-3-yl]-8-fluoroquinazolin-7-yl)-5-ethylnaphthalen-2-ol]	0.05 µM	3.0 µM
C#Cc1c(F)ccc2cc(O)cc(-c3ccc4c(N5CC[C@H]6CC[C@@H](C5)N6)nc(OC[C@]56CCC[C@H]5N(C)CCC6)nc4c3F)c12 [Example 9-4, 4-(2-{[(4aS,7aR)-1-methyl-octahydro-1H-cyclopenta[b]pyridin-4a-yl]methoxy}-4-[(1S,6R)-3,9-diazabicyclo[4.2.1]nonan-3-yl]-8-fluoroquinazolin-7-yl)-5-ethynyl-6-fluoronaphthalen-2-ol]	0.02 µM	0.2 µM
Cc1cc(N)nc(-c2c(Cl)cc3c(N4CC[C@H]5CC[C@@H](C4)N5)nc(OCC4(CN(C)C)CC4)nc3c2F)c1C(F)(F)F [Example 10-1, 6-{6-chloro-4-[(1S,6R)-3,9-diazabicyclo[4.2.1]nonan-3-yl]-2-({1-[(dimethylamino)methyl]cyclopropyl}methoxy)-8-fluoroquinazolin-7-yl}-4-methyl-5-(trifluoromethyl)pyridin-2-amine]	0.007 µM	1.0 µM
Cc1cc(N)nc(-c2c(Cl)cc3c(N4CC[C@H]5CC[C@@H](C4)N5)nc(OCC4(CN5C6CCC5COC6)CC4)nc3c2F)c1C(F)(F)F [Example 10-2, 6-{6-chloro-4-[(1S,6R)-3,9-diazabicyclo[4.2.1]nonan-3-yl]-8-fluoro-2-{[1-({3-oxa-8-azabicyclo[3.2.1]octan-8-yl}methyl)cyclopropyl]methoxy}quinazolin-7-yl}-4-methyl-5-(trifluoromethyl)pyridin-2-amine]	0.006 µM	1.0 µM
Cc1cc(N)nc(-c2c(Cl)cc3c(N4CC[C@H]5CC[C@@H](C4)N5)nc(OCC4(CN5CCCC(F)C5)CC4)nc3c2F)c1C(F)(F)F (stereo partly drawn) [Example 10-3, 6-{6-chloro-4-[(1S,6R)-3,9-diazabicyclo[4.2.1]nonan-3-yl]-8-fluoro-2-({1-[(3-fluoropiperidin-1-yl)methyl]cyclopropyl}methoxy)quinazolin-7-yl}-4-methyl-5-(trifluoromethyl)pyridin-2-amine]	0.01 µM	2.7 µM
Cc1cc(N)nc(-c2c(Cl)cc3c(N4CC[C@H]5CC[C@@H](C4)N5)nc(OCC4(CN5CC[C@@H](F)C5)CC4)nc3c2F)c1C(F)(F)F [Example 10-4, 6-{6-chloro-4-[(1S,6R)-3,9-diazabicyclo[4.2.1]nonan-3-yl]-8-fluoro-2-[(1-{[(3R)-3-fluoropyrrolidin-1-yl]methyl}cyclopropyl)methoxy]quinazolin-7-yl}-4-methyl-5-(trifluoromethyl)pyridin-2-amine]	0.11 µM	41.5 µM
Cc1cc(N)nc(-c2c(Cl)cc3c(N4CC[C@H]5CC[C@@H](C4)N5)nc(OCC4(CN5CCOCC5)CC4)nc3c2F)c1C(F)(F)F [Example 10-7, 6-{6-chloro-4-[(1S,6R)-3,9-diazabicyclo[4.2.1]nonan-3-yl]-8-fluoro-2-({1-[(morpholin-4-yl)methyl]cyclopropyl}methoxy)quinazolin-7-yl}-4-methyl-5-(trifluoromethyl)pyridin-2-amine]	0.06 µM	12.1 µM
Cc1cc(N)nc(-c2c(Cl)cc3c(N4CC[C@H]5CC[C@@H](C4)N5)nc(OCC4(CN5CCCCC5)CC4)nc3c2F)c1C(F)(F)F [Example 10-8, 6-{6-chloro-4-[(1S,6R)-3,9-diazabicyclo[4.2.1]nonan-3-yl]-8-fluoro-2-({1-[(piperidin-1-yl)methyl]cyclopropyl}methoxy)quinazolin-7-yl}-4-methyl-5-(trifluoromethyl)pyridin-2-amine]	0.02 µM	2.6 µM
Cc1cc(N)nc(-c2c(Cl)cc3c(N4CC[C@H]5CC[C@@H](C4)N5)nc(OCC4(CN5CCCC(F)C5)CC4)nc3c2F)c1C(F)(F)F (stereo partly drawn) [Example 10-9, 6-{6-chloro-4-[(1S,6R)-3,9-diazabicyclo[4.2.1]nonan-3-yl]-8-fluoro-2-({1-[(3-fluoropiperidin-1-yl)methyl]cyclopropyl}methoxy)quinazolin-7-yl}-4-methyl-5-(trifluoromethyl)pyridin-2-amine]	0.41 µM	51.0 µM
Cc1cc(N)nc(-c2c(Cl)cc3c(N4CC[C@H]5CC[C@@H](C4)N5)nc(OCC4(CN5CCCC(F)C5)CC4)nc3c2F)c1C(F)(F)F (stereo partly drawn) [Example 10-10, 6-{6-chloro-4-[(1S,6R)-3,9-diazabicyclo[4.2.1]nonan-3-yl]-8-fluoro-2-({1-[(3-fluoropiperidin-1-yl)methyl]cyclopropyl}methoxy)quinazolin-7-yl}-4-methyl-5-(trifluoromethyl)pyridin-2-amine]	0.02 µM	2.4 µM
C#Cc1c(F)ccc2cc(O)cc(-c3ccc4c(N5CC[C@H]6CC[C@@H](C5)N6)nc(OCC5(CN(C)C)CC5)nc4c3F)c12 [Example 11-1, 4-{4-[(1S,6R)-3,9-diazabicyclo[4.2.1]nonan-3-yl]-2-({1-[(dimethylamino)methyl]cyclopropyl}methoxy)-8-fluoroquinazolin-7-yl}-5-ethynyl-6-fluoronaphthalen-2-ol]	0.06 µM	2.7 µM
Oc1cc(-c2ccc3c(N4CC[C@H]5CC[C@@H](C4)N5)nc(OC[C@@]45CCCN4C[C@H](F)C5)nc3c2F)c2c(F)cccc2c1 [Example 11-2, 4-(2-{[(2R,7aS)-2-fluoro-hexahydro-1H-pyrrolizin-7a-yl]methoxy}-4-[(1S,6R)-3,9-diazabicyclo[4.2.1]nonan-3-yl]-8-fluoroquinazolin-7-yl)-5-fluoronaphthalen-2-ol]	0.01 µM	1.0 µM
Nc1cc2cccc(F)c2c(-c2ccc3c(N4CC[C@H]5CC[C@@H](C4)N5)nc(OC[C@@]45CCCN4C[C@H](F)C5)nc3c2F)n1 [Example 11-4, 1-(2-{[(2R,7aS)-2-fluoro-hexahydro-1H-pyrrolizin-7a-yl]methoxy}-4-[(1S,6R)-3,9-diazabicyclo[4.2.1]nonan-3-yl]-8-fluoroquinazolin-7-yl)-8-fluoroisoquinolin-3-amine]	2.2 µM	43.1 µM
